Structures can show the parent of a compound that is named as a salt. Where two headings read alike, the source gives them in different places.
How the values were obtained:
[1] = FAERS analysis of reported rhabdomyolysis cases per suspect drug; settings: for (%) of total rhabdomyolysis cases / Number of Rhabdomyolysis Cases / Number of Rhabdomyolysis Cases (n = 6583): FAERS 2004 to 31 March 2020; for (%) of total rhabdomyolysis cases: of 27,140 cases; for Number of Rhabdomyolysis Cases: total 27,140 rhabdomyolysis cases, some cases with more than one suspected drug; for ROR (reported odds ratio): rhabdomyolysis with suspected drug vs all other drugs in FAERS; for Number of Death Cases (n = 576): monotherapy rhabdomyolysis cases with fatal outcome; for (%) of monotherapy rhabdomyolysis cases: of 6583 cases; for Number of Rhabdomyolysis Cases (n = 6583): suspected drug reported as a single drug used (monotherapy)
Method: (§1) Due to the quarterly updating of the database by the FDA, the searches were performed using the term “rhabdomyolysis” on one occasion to ensure the data were extracted at that specified period. All individual files were downloaded and saved from this one timepoint to specify the analysis period used in this study. Further refinement was performed using Microsoft Excel to extract only cases where the suspect drug was reported as a monotherapy, using the generic name of the suspect drugs. To ensure data accuracy, any case reported by a consumer or company underwent further checks to ensure it had not been previously reported by a healthcare provider, by confirming that no duplication of case ID was present.

L6 cells [2] = assay: Acute metabolic switch assay (cellular ATP content, glucose vs galactose media) in L6 differentiated myotubes; settings: for IC50-ATPglu/IC50-ATPgal: ratio ≥ 2 = mitotoxic
Method: They were then seeded into collagen-coated wells (50 µg/mL in 0.02 M of acetic acid) at a density of 16,000 cells/100 μL/well (96 well plates) and 10,000 cells/100 μL/well (XF 96-well cell culture microplates). The cells were next incubated for 24 h in complete growth medium to promote adherence, after which the growth medium was removed and the cells washed twice with 1× HBSS. The L6 myoblasts were then cultured in differentiation medium consisting of high-glucose DMEM (25 mM) supplemented with L-glutamine (4 mM), sodium pyruvate (1 mM), HEPES (5 mM), and horse serum (2% v/v). Fresh differentiation medium was provided every 48 h for 7 days.
On the day of the assay, the media on the differentiated myotubes were replaced with either serum-free high-glucose (DMEM, 25 mM of glucose, 4 mM of L-glutamine, 1 mM of sodium pyruvate, and 5 mM of HEPES) or serum-free galactose (DMEM, 10 mM of galactose, 6 mM of L-glutamine, 1 mM of sodium pyruvate, and 5 mM of HEPES) media (100 µL) for 2 h (37 °C, 5% CO2). The glucose and galactose media were removed and replaced with drug-dosing solutions in either glucose or galactose media as appropriate, before incubation (2 h, 37 °C, 5% CO2). […] Vehicle control was included in each experiment.
The cellular ATP content was measured using a bioluminescence assay kit, alongside the concomitant measurement of protein using a bicinchoninic acid (BCA) assay kit to normalise ATP data to the total protein. Briefly, the cells were lysed using ATP lysis buffer (50 µL/well) and the plate was shaken (5 min). According to the manufacturer’s instructions, 40 µL of ATP reagent was added to each well containing 5 µL of cell lysate in a white 96-well plate. The […] luminescence signal was measured immediately using a plate reader (Varioskan, Thermo Scientific, Schaumburg, IL USA).

L6 cells [3] = settings: 6 h exposure
Method: The mitochondrial stress test allowed confirmation of mitotoxicity and further identification of the specific mechanisms through quantification of OXPHOS parameters: basal respiration (BR), ATP-linked respiration (ALR), and spare respiratory capacity (SRC). On the day of the assay, for the analysis of the acute injection of the drug on differentiated myotubes, the differentiation media was replaced with 175 µL of unbuffered Seahorse Assay media supplemented with 25 mM of glucose, 4 mM of L-glutamine, 1 mM of sodium pyruvate, and 5 mM of HEPES pre-warmed to 37 °C, then incubated in a CO2 free incubator at 37 °C for 1 h. Alternately, in the pre-treatment strategy, differentiated myotubes were pre-treated with the drug for 5 h in differentiation medium, then transferred to a CO2-free incubator at 37 °C for 1 h. Next, the differentiation media were replaced with 175 µL of unbuffered Seahorse Assay media supplemented with the constituents stated above. Briefly, using the XF^e96 instrument (Seahorse extracellular flux analyser, Agilent Technologies, Santa Clara, CA, USA), the oxygen partial pressure in each well was allowed to reach equilibrium for 10 min. The oxygen consumption rate (OCR) was measured three times at baseline; then, there was a 3 min mix for each measurement followed by a 3 min wait. […] In the acute injection method, the drug injection was only performed at the end of the basal measurement cycles, followed by the mitochondrial inhibitors described above. The duration of the assay was 120 min (acute injection) and 90 min (pre-treatment strategy). From each mitochondrial stress test was determined the OCR parameters of non-mitochondrial respiration (NMR = lowest measurement after rotenone/antimycin A); basal respiration (BR = last measurement before oligomycin − NMR); proton-leak (PL = BR − lowest respiration after oligomycin); ATP-linked respiration (ALR = BR − PL); maximum respiratory capacity (MRC = highest measurement after FCCP − NMR); and spare respiratory capacity (SRC = MRC − BR) [42, 43].

[4] = human
Method: as §1

[5] = Rattus norvegicus, L6, 2 h, read-out: ATP IC50 Galactose
[6] = Rattus norvegicus, L6, 2 h, read-out: ATP IC50 Glucose

Row | SMILES | (%) of total rhabdomyolysis cases [1] [%] | Number of Rhabdomyolysis Cases [1] | ROR (reported odds ratio) [1] | Number of Death Cases (n = 576) [1] | (%) of monotherapy rhabdomyolysis cases [1] [%] | Number of Rhabdomyolysis Cases (n = 6583) [1] | also measured
1 | Nc1nnc(-c2cccc(Cl)c2Cl)c(N)n1 [Lamotrigine] | 1.2 | 314 | 0.3 | – | – | – | –
2 | CC(=O)Oc1ccccc1C(=O)O [Aspirin] | 1.2 | 313 | 0.2 | – | – | – | –
3 | CN[C@H]1CC[C@@H](c2ccc(Cl)c(Cl)c2)c2ccccc21 [Sertraline] | 1.3 | 347 | 0.4 | – | – | – | –
4 | CC(C)c1c(C(=O)Nc2ccccc2)c(-c2ccccc2)c(-c2ccc(F)cc2)n1CC[C@@H](O)C[C@@H](O)CC(=O)O [Atorvastatin] | 12.2 | 3307 | 4.3 | 169 | 21.1 | 1386 | –
5 | Cc1nnc2n1-c1ccc(Cl)cc1C(c1ccccc1)=NC2 [Alprazolam] | 1.1 | 290 | 0.4 | – | – | – | –
6 | CC(C)c1nc(N(C)S(C)(=O)=O)nc(-c2ccc(F)cc2)c1/C=C/[C@@H](O)C[C@@H](O)CC(=O)O [Rosuvastatin] | 7.4 | 2008 | 2.9 | 47 | 17.0 | 1122 | IC50-ATPglu/IC50-ATPgal (L6 cells [2]; L6 cells, 2 h exposure): ~1 (n/d); IC50-ATPglu/IC50-ATPgal (L6 cells [2]; L6 cells, 2 h exposure, listed as rosuvastatin): 1; IC50 (L6 cells [2]; [5]): > 300 µM; IC50 (L6 cells [2]; [6]): > 300 µM
7 | CC(C)c1c(C(=O)Nc2ccccc2)c(-c2ccccc2)c(-c2ccc(F)cc2)n1CC[C@@H](O)C[C@@H](O)CC(=O)O [Atorvastatin acid] | – | – | – | – | – | – | IC50-ATPglu/IC50-ATPgal (L6 cells [2]; L6 cells, 2 h exposure): ~1 (n/d); IC50-ATPglu/IC50-ATPgal (L6 cells [2]; L6 cells, 2 h exposure, listed as atorvastatin acid): 1; IC50 (L6 cells [2]; read-out: ATP IC50 Galactose, L6 cells, 2 h exposure, galactose serum-free media, mean ± S.D. (n = 3)): > 300 µM; IC50 (L6 cells [2]; read-out: ATP IC50 Glucose, L6 cells, 2 h exposure, glucose serum-free media, mean ± S.D. (n = 3)): > 300 µM
8 | Cc1ccc(C)c(OCCCC(C)(C)C(=O)O)c1 [Gemfibrozil] | 1.6 | 442 | 15.0 | – | – | – | ROR (reported odds ratio) ([1]; listed as gemfibrozil): 15
9 | O=C(CCCN1CCC(O)(c2ccc(Cl)cc2)CC1)c1ccc(F)cc1 [Haloperidol] | 1.1 | 310 | 1.3 | – | – | – | –
10 | CCC(C)(C)C(=O)O[C@H]1C[C@@H](C)C=C2C=C[C@H](C)[C@H](CC[C@@H](O)C[C@@H](O)CC(=O)O)[C@H]21 [Simvastatin acid, Simvastatin hydroxy acid ammonium salt] | – | – | – | – | – | – | IC50-ATPglu/IC50-ATPgal (L6 cells [2]; L6 cells, 2 h exposure): ~1 (n/d); IC50-ATPglu/IC50-ATPgal (L6 cells [2]; L6 cells, 2 h exposure, listed as simvastatin acid): 1; IC50 (L6 cells [2]; [5]): > 300 µM; IC50 (L6 cells [2]; [6]): > 300 µM
11 | OCCOCCN1CCN(C2=Nc3ccccc3Sc3ccccc32)CC1 [Quetiapine] | 2.8 | 761 | – | 26 | 3.0 | 199 | –
12 | CC(C)c1cccc(C(C)C)c1O [Propofol] | 1.6 | 434 | 2.2 | 70 | 2.7 | 179 | Classification from pattern of changes in BR, ALR and SRC (L6 cells [3]): direct inhibitors of the electron transport chain; Mitotoxicity classification in acute metabolic switch assay (L6 cells [2]): multi-mechanistic; IC50 (L6 cells [2]; [5]): 242 ± 13.4 µM; IC50 (L6 cells [2]; [6]): > 300 µM
13 | COc1ccc2[nH]c([S+]([O-])Cc3ncc(C)c(OC)c3C)nc2c1 (centres unmarked) [Omeprazole] | 1.3 | 363 | 0.5 | – | – | – | –
14 | CC[C@H]1OC(=O)[C@H](C)[C@@H](O[C@H]2C[C@@](C)(OC)[C@@H](O)[C@H](C)O2)[C@H](C)[C@@H](O[C@@H]2O[C@H](C)C[C@H](N(C)C)[C@H]2O)[C@](C)(OC)C[C@@H](C)C(=O)[C@H](C)[C@@H](O)[C@]1(C)O [Clarithromycin] | 1.6 | 427 | 1.2 | – | – | – | –
15 | CC(=O)Nc1ccc(O)cc1 [Acetaminophen] | 1.7 | 449 | 0.3 | – | – | – | –
16 | O=C1CCc2ccc(OCCCCN3CCN(c4cccc(Cl)c4Cl)CC3)cc2N1 [Aripiprazole] | 1.5 | 419 | 0.4 | – | – | – | –
17 | CCCCCCCCCC(=O)N[C@@H](Cc1c[nH]c2ccccc12)C(=O)N[C@H](CC(N)=O)C(=O)N[C@@H](CC(=O)O)C(=O)N[C@@H]1C(=O)NCC(=O)N[C@@H](CCCN)C(=O)N[C@@H](CC(=O)O)C(=O)N[C@H](C)C(=O)N[C@@H](CC(=O)O)C(=O)NCC(=O)N[C@H](CO)C(=O)N[C@@H]([C@H](C)CC(=O)O)C(=O)N[C@@H](CC(=O)c2ccccc2N)C(=O)O[C@@H]1C [Daptomycin] | – | – | – | 18 | – | – | (%) of monotherapy rhabdomyolysis cases [4]: 3.5%; (%) of total rhabdomyolysis cases [4]: 1.4%; Number of Rhabdomyolysis Cases [4]: 380; Number of Rhabdomyolysis Cases (n = 6583) [4]: 227; ROR (reported odds ratio) [4]: 3.2; IC50-ATPglu/IC50-ATPgal (L6 cells [2]; L6 cells, 2 h exposure): ~1 (n/d); IC50-ATPglu/IC50-ATPgal (L6 cells [2]; L6 cells, 2 h exposure, listed as daptomycin): 1; IC50 (L6 cells [2]; [5]): > 100 µM; IC50 (L6 cells [2]; [6]): > 100 µM
18 | CC(C)C[C@H](CN)CC(=O)O [Pregabalin] | 1.6 | 442 | – | 13 | 2.0 | 132 | Classification from pattern of changes in BR, ALR and SRC (L6 cells [3]): direct inhibitors of the electron transport chain; IC50 (L6 cells [2]; [6]): > 300 µM
19 | COc1ccc(C(CN(C)C)C2(O)CCCCC2)cc1 (centres unmarked) [Venlafaxine] | 1.6 | 425 | 0.5 | – | – | – | –
20 | O=C1[C@H](CC[C@H](O)c2ccc(F)cc2)[C@@H](c2ccc(O)cc2)N1c1ccc(F)cc1 [Ezetimibe] | 1.9 | 501 | 2.6 | 6 | 2.5 | 166 | IC50-ATPglu/IC50-ATPgal (L6 cells [2]; L6 cells, 2 h exposure): ~1 (n/d); IC50-ATPglu/IC50-ATPgal (L6 cells [2]; L6 cells, 2 h exposure, listed as ezetimibe): 1; IC50 (L6 cells [2]; [5]): > 300 µM; IC50 (L6 cells [2]; [6]): > 300 µM
21 | CN1CCN(C2=Nc3cc(Cl)ccc3Nc3ccccc32)CC1 [Clozapine] | 1.1 | 286 | – | 12 | 1.8 | 116 | –
22 | Cc1cc2c(s1)Nc1ccccc1N=C2N1CCN(C)CC1 [Olanzapine] | – | – | – | 23 | – | – | –
23 | CN(C)C(=N)N=C(N)N [Metformin] | 1.8 | 478 | 0.4 | – | – | – | –
24 | CC[C@@H](C(N)=O)N1CCCC1=O [Levetiracetam] | 2.2 | 588 | 0.9 | 8 | 5.9 | 386 | IC50-ATPglu/IC50-ATPgal (L6 cells [2]; L6 cells, 2 h exposure): ~1 (n/d); IC50-ATPglu/IC50-ATPgal (L6 cells [2]; L6 cells, 2 h exposure, listed as levetiracetam): 1; IC50 (L6 cells [2]; [5]): > 300 µM; IC50 (L6 cells [2]; [6]): > 300 µM
25 | NS(=O)(=O)c1cc(C(=O)O)c(NCc2ccco2)cc1Cl [Furosemide] | 1.8 | 480 | 0.8 | – | – | – | –
